The values that follow come from paper PMC3643963, “Enhancement of Proteolytic Activity of a Thermostable Papain-Like Protease by Structure-Based Rational Design” (PLoS ONE, 2013).

Holding throughout (assay): residual activity, pNA release at […] nm
Format in all cases: biochemical
Common to all, as to conditions: read-out: IC50 against E-64

Experiment [1] has as its target Ervatamin-C (Erv-C) (Tabernaemontana divaricata, UniProt A8DS38).
Experiment [2] has as its target Ervatamin-C (Erv-C) (Tabernaemontana divaricata, UniProt A8DS38, A200Y/S165T).
For experiment [3], the target named is Ervatamin-C (Erv-C) (Tabernaemontana divaricata, UniProt A8DS38, A200Y).
Ervatamin-C (Erv-C) (Tabernaemontana divaricata, UniProt A8DS38, A200Y), sequence (A8DS38 134-341 A200Y): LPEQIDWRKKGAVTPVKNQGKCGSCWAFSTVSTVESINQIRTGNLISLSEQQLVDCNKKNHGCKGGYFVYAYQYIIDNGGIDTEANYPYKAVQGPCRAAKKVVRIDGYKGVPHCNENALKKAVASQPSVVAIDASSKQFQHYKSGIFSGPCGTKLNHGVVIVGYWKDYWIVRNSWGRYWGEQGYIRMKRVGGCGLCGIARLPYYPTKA

Ervatamin-C (Erv-C) (Tabernaemontana divaricata, UniProt A8DS38, A200Y/S165T), sequence (A8DS38 134-341 S165T/A200Y): as the sequence (A8DS38 134-341 A200Y) above, with S32T counted along it
Ervatamin-C (Erv-C) (Tabernaemontana divaricata, UniProt A8DS38), sequence (A8DS38 134-341): as the sequence (A8DS38 134-341 A200Y) above, with Y67A counted along it

Regarding `CC(C)C[C@H](NC(=O)[C@H]1O[C@@H]1C(=O)O)C(=O)NCCCCN=C(N)N` [E-64], the IC50 – broadly, the concentration that inhibits the measured activity by half – is 349 nM in experiment [1], 171 nM in experiment [2] and 251 nM in experiment [3].
